According to US9290745B2, “Luciferase biosensor” (PROMEGA CORPORATION, priority 2003, dated 2016):

Molecular target: T1, Luc2-CaM fusion (UniProt P08659+P0DP23, D3I/E2D/N119G/N50D)
T1 construct: made in house; host or cells: cell-free: TnT Coupled Reticulocyte Lysate System
Assay: C-terminal modulated luciferase fusion system (calmodulin)
Type: biochemical, human

Row | Structure (SMILES) | increase of luminescence (EGTA final concentration 3 mM, Luc2-CaM TnT lysate in LAR) | effect on EGTA-induced increase in luminescence (1 μl 100 mM CaCl2 added after EGTA)
1 | O=C(O)CN(CCOCCOCCN(CC(=O)O)CC(=O)O)CC(=O)O [EGTA] | about 9 fold | –
2 | [Ca+2].[Cl-].[Cl-] [Ca^+2, CaCl2] | – | can be reversed
